# Activity calls are given as the source filed them. No rule for the calls is given here.
# Tested on: rodent carcinogenicity bioassays, tumor incidence
# Assay: CCRIS carcinogenicity studies
# Outline: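 Archive of carcinogenicity, mutagenicity, tumor promotion and tumor inhibition results drawn from journals, NCI reports and other sources, expert-reviewed; covers 1985-2011 and is no longer updated.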
compound,measurement,setting,value
CC1=CC(=O)CC(C)(C)C1,carcinogen call,"Species: MOUSE, Strain/Sex: B6C3F1/FEMALE, Route: GAVAGE, Dose: 0, 250, 500 MG/KG IN CORN OIL 5 D/WK FOR 103 WK (STUDY DURATION: 105 WK), Dose: 0, 250, 500 MG/KG IN CORN OIL 5 D/WK FOR 103 WK (STUDY DURATION: 105 WK)",inactive; negative
same,carcinogen call,"Species: MOUSE, Strain/Sex: B6C3F1/MALE, Route: GAVAGE, Dose: 0, 250, 500 MG/KG IN CORN OIL 5 D/WK FOR 103 WK (STUDY DURATION: 105 WK), Dose: 0, 250, 500 MG/KG IN CORN OIL 5 D/WK FOR 103 WK (STUDY DURATION: 105 WK), Tumor Site: Type of Lesion: LIVER: HEPATOCELLULAR ADENOMA OR CARCINOMA, INTEGUMENTARY SYSTEM: MESENCHYMAL TUMOR, HEMATOPOIETIC SYSTEM: MALIGNANT LYM, Tumor Site: Type of Lesion: LIVER: HEPATOCELLULAR ADENOMA OR CARCINOMA, INTEGUMENTARY SYSTEM: MESENCHYMAL TUMOR, HEMATOPOIETIC SYSTEM: MALIGNANT LYM",equivocal
same,carcinogen call,"Species: RAT, Strain/Sex: F344/FEMALE, Route: GAVAGE, Dose: 0, 250, 500 MG/KG IN CORN OIL 5 D/WK FOR 103 WK (STUDY DURATION: 105 WK), Dose: 0, 250, 500 MG/KG IN CORN OIL 5 D/WK FOR 103 WK (STUDY DURATION: 105 WK)",inactive; negative
same,carcinogen call,"Species: RAT, Strain/Sex: F344/MALE, Route: GAVAGE, Dose: 0, 250, 500 MG/KG IN CORN OIL 5 D/WK FOR 103 WK (STUDY DURATION: 105 WK), Dose: 0, 250, 500 MG/KG IN CORN OIL 5 D/WK FOR 103 WK (STUDY DURATION: 105 WK), Tumor Site: Type of Lesion: PREPUTIAL GLAND: CARCINOMA, KIDNEY: TUBULAR CELL ADENOMA OR ADENOCARCINOMA, PANCREAS: ACINAR CELL ADENOMA, Tumor Site: Type of Lesion: PREPUTIAL GLAND: CARCINOMA, KIDNEY: TUBULAR CELL ADENOMA OR ADENOCARCINOMA, PANCREAS: ACINAR CELL ADENOMA",active; positive
CC1=C2C(=CO[C@H](C)[C@H]2C)C(=O)C(C(=O)O)=C1O,carcinogen call,"Species: MOUSE, Strain/Sex: DDD/MALE, Route: ORAL, Dose: 0, 100, 200 PPM IN DIET FOR 70 WK (STUDY DURATION: 70 WK), Dose: 0, 100, 200 PPM IN DIET FOR 70 WK (STUDY DURATION: 70 WK)",inactive; negative
same,carcinogen call,"Species: RAT, Route: DIET, Dose: 0, 0.1%, FOR 32 WK, Tumor Site: Type of Lesion: KIDNEY: ADENOMA, ADENOCARCINOMA",active; positive
same,carcinogen call,"Species: RAT, Strain/Sex: F344/MALE, Route: ORAL, Dose: 0.1% IN DIET FOR 80 WK, Tumor Site: Type of Lesion: KIDNEY: CLEAR CELL ADENOMA",active; positive
COCc1cnc(C2=NC(C)(C(C)C)C(=O)N2)c(C(=O)O)c1 (stereo not drawn),carcinogen call,"Species: Mouse, Strain/Sex: CD-1/Female (55/Group), Route: Oral, Dose: 0, 96, 664, 1348 mg/kg/day of 97.1% imazamox in diet for at least 18 mo, study duration at least 18 mo, Dose: 0, 96, 664, 1348 mg/kg/day of 97.1% imazamox in diet for at least 18 mo, study duration at least 18 mo",inactive; negative
same,carcinogen call,"Species: Mouse, Strain/Sex: CD-1/Male (55/Group), Route: Oral, Dose: 0, 73, 535, 1053 mg/kg/day of 97.1% imazamox in diet for at least 18 mo, study duration at least 18 mo, Dose: 0, 73, 535, 1053 mg/kg/day of 97.1% imazamox in diet for at least 18 mo, study duration at least 18 mo",inactive; negative
same,carcinogen call,"Species: Rat, Strain/Sex: Sprague-Dawley/Female (65/Group), Route: Oral, Dose: 0, 63, 626, 1284 mg/kg/day of 97.1% imazamox in diet for 24 mo, study duration 24 mo, Dose: 0, 63, 626, 1284 mg/kg/day of 97.1% imazamox in diet for 24 mo, study duration 24 mo",inactive; negative
same,carcinogen call,"Species: Rat, Strain/Sex: Sprague-Dawley/Male (65/Group), Route: Oral, Dose: 0, 52, 528, 1068 mg/kg/day of 97.1% imazamox in diet for 24 mo, study duration 24 mo, Dose: 0, 52, 528, 1068 mg/kg/day of 97.1% imazamox in diet for 24 mo, study duration 24 mo",inactive; negative
COc1ccc(C)cc1N,carcinogen call,"Species: MOUSE, Strain/Sex: B6C3F1/FEMALE, Route: ORAL, Dose: 0, 0.22, 0.44% TWA, IN DIET FOR 104 WK (STUDY DURATION: 97-106 WK), Dose: 0, 0.22, 0.44% TWA, IN DIET FOR 104 WK (STUDY DURATION: 97-106 WK), Tumor Site: Type of Lesion: LIVER: HEPATOCELLULAR CARCINOMA, HEPATOCELLULAR CARCINOMA OR ADENOMA, URINARY BLADDER: TRANSITIONAL CELL CARCINOMA OR CA",active; positive
same,carcinogen call,"Species: MOUSE, Strain/Sex: B6C3F1/MALE, Route: ORAL, Dose: 0, 0.22, 0.46% TWA, IN DIET FOR 92-104 WK (STUDY DURATION: 92-106 WK), Dose: 0, 0.22, 0.46% TWA, IN DIET FOR 92-104 WK (STUDY DURATION: 92-106 WK), Tumor Site: Type of Lesion: URINARY BLADDER: SQUAMOUS CELL CARCINOMA OR TRANSITIONAL CELL CARCINOMA",active; positive
same,carcinogen call,"Species: RAT, Strain/Sex: F344/FEMALE, Route: ORAL, Dose: 0, 0.5, 1.0% IN DIET FOR 104 WK (STUDY DURATION: 106 WK), Dose: 0, 0.5, 1.0% IN DIET FOR 104 WK (STUDY DURATION: 106 WK), Tumor Site: Type of Lesion: NASAL CAVITY: OLFACTORY NEUROBLASTOMA, URINARY BLADDER: NEOPLASM (NOS) OR PAPILLARY CARCINOMA OR SQUAMOUS CELL CARCINOMA",active; positive
same,carcinogen call,"Species: RAT, Strain/Sex: F344/MALE, Route: ORAL, Dose: 0, 0.5, 1.0% IN DIET FOR 104 WK (STUDY DURATION: 105-106 WK), Dose: 0, 0.5, 1.0% IN DIET FOR 104 WK (STUDY DURATION: 105-106 WK), Tumor Site: Type of Lesion: NASAL CAVITY: NEUROBLASTOMA OR OLFACTORY NEUROBLASTOMA, LIVER: NEOPLASTIC NODULE OR HEPATOCELLULAR CARCINOMA OR MIXED HE",active; positive
[O-]/[N+](=N\O)c1ccccc1,carcinogen call,"Species: MOUSE, Strain/Sex: B6C3F1/FEMALE, Route: ORAL, Dose: 0, 0.2, 0.4% TWA, IN DIET FOR 78 WK (STUDY DURATION: 95-98 WK), Dose: 0, 0.2, 0.4% TWA, IN DIET FOR 78 WK (STUDY DURATION: 95-98 WK), Tumor Site: Type of Lesion: CIRCULATORY SYSTEM: HEMANGIOSARCOMA OR HEMANGIOMA, LIVER: HEPATOCELLULAR CARCINOMA, HEPATOCELLULAR ADENOMA OR CARCINOMA;, Tumor Site: Type of Lesion: CIRCULATORY SYSTEM: HEMANGIOSARCOMA OR HEMANGIOMA, LIVER: HEPATOCELLULAR CARCINOMA, HEPATOCELLULAR ADENOMA OR CARCINOMA",active; positive
same,carcinogen call,"Species: MOUSE, Strain/Sex: B6C3F1/MALE, Route: ORAL, Dose: 0, 0.2, 0.4% TWA, IN DIET FOR 78 WK (STUDY DURATION: 95-98 WK), Dose: 0, 0.2, 0.4% TWA, IN DIET FOR 78 WK (STUDY DURATION: 95-98 WK), Tumor Site: Type of Lesion: CIRCULATORY SYSTEM: HEMANGIOSARCOMA",active; positive
same,carcinogen call,"Species: RAT, Strain/Sex: F344/FEMALE, Route: ORAL, Dose: 0, 0.15, 0.30% IN DIET FOR 78 WK (STUDY DURATION: 106-110 WK), Dose: 0, 0.15, 0.30% IN DIET FOR 78 WK (STUDY DURATION: 106-110 WK), Tumor Site: Type of Lesion: CIRCULATORY SYSTEM: HEMANGIOSARCOMA, LIVER: HEPATOCELLULAR CARCINOMA, HEPATOCELLULAR CARCINOMA OR NEOPLASTIC NODULE, STO, Tumor Site: Type of Lesion: CIRCULATORY SYSTEM: HEMANGIOSARCOMA, LIVER: HEPATOCELLULAR CARCINOMA, HEPATOCELLULAR CARCINOMA OR NEOPLASTIC NODULE, STO",active; positive
same,carcinogen call,"Species: RAT, Strain/Sex: F344/MALE, Route: ORAL, Dose: 0, 0.15, 0.30% IN DIET FOR 78 WK (STUDY DURATION: 97-110 WK), Dose: 0, 0.15, 0.30% IN DIET FOR 78 WK (STUDY DURATION: 97-110 WK), Tumor Site: Type of Lesion: CIRCULATORY SYSTEM: HEMANGIOSARCOMA, LIVER: HEPATOCELLULAR CARCINOMA OR NEOPLASTIC NODULE, STOMACH: SQUAMOUS CELL CARCIN, Tumor Site: Type of Lesion: CIRCULATORY SYSTEM: HEMANGIOSARCOMA, LIVER: HEPATOCELLULAR CARCINOMA OR NEOPLASTIC NODULE, STOMACH: SQUAMOUS CELL CARCIN",active; positive
NCCNc1cccc2ccccc12,carcinogen call,"Species: MOUSE, Strain/Sex: B6C3F1/FEMALE, Route: ORAL, Dose: 0, 0.2, 0.3% OF DIET, TWA FOR HIGH DOSE, Dose: 0, 0.2, 0.3% OF DIET, TWA FOR HIGH DOSE",inactive; negative
same,carcinogen call,"Species: MOUSE, Strain/Sex: B6C3F1/MALE, Route: ORAL, Dose: 0, 0.05, 0.1% OF DIET, Dose: 0, 0.05, 0.1% OF DIET",inactive; negative
same,carcinogen call,"Species: RAT, Strain/Sex: F344/FEMALE, Route: ORAL, Dose: 0, 0.05, 0.1% OF DIET, Dose: 0, 0.05, 0.1% OF DIET",inactive; negative
same,carcinogen call,"Species: RAT, Strain/Sex: F344/MALE, Route: ORAL, Dose: 0, 0.05, 0.1% OF DIET, Dose: 0, 0.05, 0.1% OF DIET",inactive; negative
